Experimental data from publication PMC6645542 (PLoS ONE, 2019).

Tests used:
[1] = biological target: Thioredoxin glutathione reductase from T. crassiceps (TcTGR) (Taenia crassiceps, UniProt A0ABR4QG96); test: GSSG-reductase activity of TGR (NADPH oxidation at 340 nm); assay type: biochemical; details: for Recovered activity (%): B: TGR incubated with COP for 5 min, then thiol 50 μM added, control = 100%; for inhibition at 200 µM: 200 μM of the compound, 3 min incubation (Fig 1a), read-out: maximal inhibition of GSSG reductase activity of TcTGR; for IC50: curcumin degradation products, 3 min incubation in TE buffer, 100 μM NADPH, 67 μM GSSG, read-out: IC50, inhibition of GSSG reductase activity of TcTGR
Procedure: TGR activity was monitored spectrophotometrically by following the decrease in absorbance at 340 nm (ɛ = 6.22 mM^-1cm^-1) due to its NADPH-dependent ability to reduce GSSG [35, 36]. To determine the inhibitory ability of either curcuminoids, curcumin degradation products or curcumin oxidation products we used the following protocols: a) Curcuminoids. An enzyme aliquot (30 μL) was incubated in the presence of 1 μM NADPH; then, a 1.5 μL aliquot of the above mixture was added to 50 μM of the corresponding curcuminoid solution in TE buffer. At different incubation times, a small aliquot containing both NADPH and GSSG was added to start the reaction in a total volume of 600 μL. The enzyme activity of a reaction mixture prepared in the absence of any curcuminoid was taken as 100% relative activity b) Curcumin degradation products (CDP). The enzyme was treated as above and 1.5 μL aliquot of the mixture was added to the corresponding CDP solution at a selected concentration followed by a 2 min incubation period. Then, both NADPH and GSSG were added to start the reaction. The enzyme activity of a reaction mixture prepared in the absence of any CDP was taken as 100% relative activity. c) Curcumin oxidation products (COP). Curcumin final concentration 50 μM was incubated 15 min in TE buffer. Then, both TGR and the substrates NADPH and GSSG were added to start the reaction. Final concentrations of enzyme, NADPH and GSSG were 13 nM, 100 μM and 70 μM respectively. A unit of enzyme activity is defined as the amount of protein needed to oxidize one μmol NADPH per minute at 25°C.

[2] = parameters: method as in PMID 25806475; details: cited from earlier work
[3] = Spectrophotometrical analysis of stability (absorbance at 426 nm / absorption spectrum); assay type: physicochemical
Procedure: Raúl Enriquez (Instituto de Química, UNAM, México). Curcumin 5 mM was dissolved in DMSO and stored at room temperature. […] The protein concentration of the purified enzyme was determined spectrophotometrically by reading the absorbance at 460 nm (ɛ = 11.3 mM^-1cm^-1) due to its FAD content. The absorption spectrum of curcuminoids (curcumin, DMC and BDMC) and the different curcumin degradation products (CDP) FM, V, VA, F-Ad, 4VG, and FA were recorded in a UV/Vis Beckman DU 730 Spectrophotometer. […] The detection of the curcumin oxidation products (COP) was performed by following the changes in the absorption spectrum immediately after a 100-fold dilution of the curcumin stock solution in TE buffer.

O[C@@H](CS)[C@@H](O)CS (racemic) [DTT, 1,4-Dithio-DL-threitol, reference compound]
Recovered activity (%) [1]: 20.3 ± 1.1%

O=C(/C=C/c1ccc(O)cc1)CC(=O)/C=C/c1ccc(O)cc1 [BDMC, bis-demethoxycurcumin]
inhibition of the enzyme activity ([1]; 50 μM, diluted 30 min in TE buffer before enzyme, 30 min incubation with TGR (Fig 3)): no inhibition was observed
inhibition at 200 µM [1]: 100%

COc1cc(/C=C/C(O)=C/C(=O)/C=C/c2ccc(O)cc2)ccc1O [DMC, demethoxycurcumin]
inhibition at 200 µM [1]: 65%
time after dilution at which the final product of oxidative transformation was achieved [2]: 48 h
effect of NADPH on the stability ([3]; 50 μM in TE buffer, 100 μM NADPH, absorbance at 426 nm): no effect

N[C@@H](CCC(=O)N[C@@H](CS)C(=O)NCC(=O)O)C(=O)O [GSH, reduced glutathione, reference compound]
Recovered activity (%) [1]: 14.7 ± 1.0%

COc1cc(/C=C/C(=O)CC(=O)/C=C/c2ccc(O)c(OC)c2)ccc1O [curcumin, (1E, 6E)-1,7-bis (4-hydroxy-3-methoxyphenyl)-1,6-heptadiene-3,5-dione]
dilution time at which the maximal inhibitory ability was reached ([1]; 50 μM diluted in TE buffer in the absence of NADPH (Fig 4a)): 15 min
inhibition of the enzyme activity ([1]; 50 μM diluted in TE buffer in the presence of 100 μM NADPH (Fig 4b)): no inhibition
remaining activity at 50 µM ([1]; 50 μM diluted in TE buffer without NADPH, after 4 h incubation (Fig 4a grey line), read-out: activity relative to control): 80%
GSSG reductase activity ([1]; 50 μM, diluted 30 min in TE buffer before enzyme, 1 min incubation with the enzyme (Fig 3a)): no GSSG reductase activity was detected
inhibition at 200 µM [1]: 10%
drop in the absorbance at 426 nm ([3]; 50 μM in TE buffer pH 7.8, 30 min incubation, in the absence of NADPH): 82%
diminution in the absorbance at 426 nm ([3]; 50 μM in TE buffer pH 7.8, 30 min incubation, in the presence of 100 μM NADPH): 25%

COc1cc(/C=C/C(=O)O)ccc1O [ferulic acid]
IC50 [1]: 465 µM

COc1cc(/C=C/C=O)ccc1O [ferulic aldehyde]
IC50 [1]: 180 µM
